Assay results from PubChem BioAssay (NCI).
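Tested at 5 concentrations; 48 h exposure; 96-well plates; endpoints linearly interpolated, else capped at highest concentration. TGI marks complete inhibition of growth.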

Tests used:
Test in all cases: NCI tumour cell line growth inhibition, 48 h
786-0 renal = system: 786-0 renal
A549 NSCLC = system: A549 NSCLC
ACHN renal = system: ACHN renal
BT-549 breast = system: BT-549 breast
HCT-116 colon = system: HCT-116 colon
HS 578T breast = system: HS 578T breast
IGROV1 ovarian = system: IGROV1 ovarian
MOLT-4 leukemia = system: MOLT-4 leukemia
NCI-H522 lung = system: NCI-H522 lung
SF-295 CNS = system: SF-295 CNS
SK-MEL-5 melanoma = system: SK-MEL-5 melanoma
SK-OV-3 ovarian = system: SK-OV-3 ovarian
OVCAR-3 ovarian = system: OVCAR-3 ovarian
OVCAR-5 ovarian = system: OVCAR-5 ovarian
SK-MEL-2 melanoma = system: SK-MEL-2 melanoma

Row | Structure (SMILES) | TGI (786-0 renal) [µM] | TGI (A549 NSCLC) [µM] | TGI (ACHN renal) [µM] | TGI (BT-549 breast) [µM] | TGI (HCT-116 colon) [µM] | TGI (HS 578T breast) [µM] | TGI (IGROV1 ovarian) [µM] | TGI (MOLT-4 leukemia) [µM] | TGI (NCI-H522 lung) [µM] | TGI (SF-295 CNS) [µM] | TGI (SK-MEL-5 melanoma) [µM] | TGI (SK-OV-3 ovarian) [µM] | TGI (OVCAR-3 ovarian) [µM] | TGI (OVCAR-5 ovarian) [µM] | TGI (SK-MEL-2 melanoma) [µM]
1 | Cc1nn(C(=O)Cc2ccccc2)c2c1C(c1ccccc1)SC(N)=N2 (stereo not drawn) | > 100 | > 100 | > 100 | > 100 | > 100 | > 100 | > 100 | > 100 | > 100 | > 100 | > 100 | > 100 |  |  | 
2 | CCOC(=O)C(=[N+]=[N-])C(=O)CN1C(=O)c2ccccc2C1=O | > 100 | > 100 | > 100 | > 100 | > 100 | > 100 | > 100 | > 100 | > 100 | > 100 | > 100 | > 100 | > 100 | > 100 | > 100
3 | N=c1oc2ccccc2cc1C(=O)NC12CC3CC(CC(C3)C1)C2 | 9.92 | 73.1 | 31.4 | 50.6 | 71.1 | > 100 | > 65.6 | 10.2 | 14.8 | 67.4 | 69.9 | 53.5 | 37.5 | > 100 | 31.3
4 | Cc1ccc(-[n+]2cc([O-])on2)cc1 | > 100 | > 100 | > 100 | > 100 | > 100 | > 100 | > 100 | > 100 | > 100 | > 100 | > 100 |  | > 100 | > 100 | > 100
5 | O=C1SC(SCc2ccccc2)=NC12CC2c1ccccc1 (stereo not drawn) | 39.2 | 81.8 | 38.2 | 52.8 | 31.4 | 68.4 | 52.6 | 10.3 | 33.5 | 44.8 | 34.1 | > 100 | > 72.7 | 38.9 | 40.1
6 | O=C1c2cccc3cc([N+](=O)[O-])cc(c23)C(=O)N1Nc1ccc([N+](=O)[O-])cc1[N+](=O)[O-] | 35.7 | > 31.6 | 7.06 | > 31.6 | 34.3 | > 31.6 | 25.5 | 11.8 | 28.6 | > 31.6 | 21.1 | > 31.6 | 82.8 | > 100 | > 100
7 | N#CSC#CCCC#CSC#N | 40.4 | 42 | 31.4 | 47.7 | 48.5 | 76.2 | 45.1 | 6.92 | 13.6 | 32.7 | 34.8 | 29.7 | 51.8 | 40.3 | 43.1
8 | CSC(=O)c1sc(SC)[n+](-c2ccccc2)c1O | 32.7 | > 100 | > 100 | 29.4 | 32.6 | > 100 | 37.2 | 41.4 | 24.8 | 32 | 55.7 | > 100 | 26.2 | 49.6 | 53.1
9 | Cc1cc(OC(=O)Nc2cccc3ccccc23)c(C(C)C)cc1C(=S)Nc1ccccc1 | 56.6 | > 100 | 73.5 | 32.1 | 32.4 | 55.2 | 30.4 | 52.4 | 29.1 | 36.8 | 27.9 | 51.7 | 33.5 | 46 | 28.3
10 | COc1cc2c(/C=C3/C(=O)Nc4cccc(Cl)c43)c(Cl)[nH]c2cc1C | 4.15 | 6.23 | 12.2 | 3.67 | 3.19 | 5.58 | 11.8 | 1.26 | 6.74 | 4.21 | 14.3 | 5.67 | 4.29 | 14.8 | 12.3
11 | Cc1ccc2nc(-c3ccccc3)cc(=O)n2c1 | > 100 | > 100 | > 100 | > 100 | > 100 | > 100 | > 100 | > 100 | > 100 | > 100 | > 100 | > 100 | > 100 | > 100 | 
12 | O=S(=O)(O)c1cc(N=Nc2c(O)ccc3ccccc23)cc2c(S(=O)(=O)O)cccc12 | > 100 | > 100 | > 100 | > 100 | > 100 | > 100 | > 100 | > 100 | > 100 | > 100 | > 100 | > 100 | > 100 | > 100 | > 100
13 | CCOC(=O)c1cn2c(n1)sc1cc(F)ccc12 | > 100 | > 100 | > 100 | > 100 | > 100 | > 100 | > 100 | > 100 | > 100 | > 100 | > 100 | > 100 | > 100 | > 100 | > 100
14 | CC(=O)CC1CCC(=O)/C=C/C(=O)OC(CC(C)=O)CCC(=O)/C=C/C(=O)O1 (stereo not drawn) | 10.6 | 43 | 11.2 | 6.7 | 9.08 | 69.9 | 32.1 | > 100 | 2.91 | 18.4 | 27.3 | 36.1 | 17.1 | 31.5 | 19.8
15 | C(=C/CCCN1O[C@@H](CCCCCCCCc2cccnc2)[C@H]2CCC[C@H]21)/CCCCCCCCCc1cccnc1 | 37 | 47.2 |  | 95.7 | 40.4 | > 100 | 79.4 | 55.1 |  | 41.9 | 43.7 | 47.2 | 36.1 | 41.5 | 52.4
